Assay results: patent publication US20090035287A1, “ATRIAL NATRIURETIC PEPTIDE (ANP) SPLICE VARIANTS AND METHODS OF USING SAME” (priority 2005, published 2009)
Bridge positions count the residues as written; N and C are the ends. Ends that are not written are not given here.

T1: membrane-bound guanylyl cyclase (Rattus norvegicus, UniProt P18910)
T1 construct: from tissue; host or cells: lung of Wistar rats (membrane preparation)
T1 sequence (P18910 29-1057): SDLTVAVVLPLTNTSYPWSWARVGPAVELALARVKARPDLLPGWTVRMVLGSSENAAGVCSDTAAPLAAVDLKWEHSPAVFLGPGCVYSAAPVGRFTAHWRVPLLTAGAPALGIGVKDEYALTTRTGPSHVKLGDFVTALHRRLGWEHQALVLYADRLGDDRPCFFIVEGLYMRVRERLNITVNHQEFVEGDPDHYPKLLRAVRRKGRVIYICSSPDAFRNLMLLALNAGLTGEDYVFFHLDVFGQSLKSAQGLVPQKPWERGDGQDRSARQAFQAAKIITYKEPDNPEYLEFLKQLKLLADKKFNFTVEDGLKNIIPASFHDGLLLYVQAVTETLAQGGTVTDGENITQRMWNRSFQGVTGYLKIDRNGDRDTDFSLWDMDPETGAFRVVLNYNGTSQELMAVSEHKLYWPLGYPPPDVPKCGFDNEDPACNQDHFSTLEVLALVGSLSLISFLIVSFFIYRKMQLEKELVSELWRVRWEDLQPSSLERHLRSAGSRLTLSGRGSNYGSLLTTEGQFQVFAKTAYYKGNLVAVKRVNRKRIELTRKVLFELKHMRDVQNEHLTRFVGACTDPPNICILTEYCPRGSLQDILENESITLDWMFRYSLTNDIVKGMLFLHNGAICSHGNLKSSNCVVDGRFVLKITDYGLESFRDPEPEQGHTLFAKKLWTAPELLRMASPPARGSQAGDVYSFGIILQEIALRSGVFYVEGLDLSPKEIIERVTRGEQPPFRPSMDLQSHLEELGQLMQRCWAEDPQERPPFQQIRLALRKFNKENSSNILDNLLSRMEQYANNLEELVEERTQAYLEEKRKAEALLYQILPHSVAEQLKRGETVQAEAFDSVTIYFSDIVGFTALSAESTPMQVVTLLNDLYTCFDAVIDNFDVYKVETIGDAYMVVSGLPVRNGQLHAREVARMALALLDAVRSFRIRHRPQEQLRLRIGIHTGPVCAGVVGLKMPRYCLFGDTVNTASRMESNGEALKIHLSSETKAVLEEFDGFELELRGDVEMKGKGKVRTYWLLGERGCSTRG

T2: membrane-bound guanylyl cyclase isolated from the lung of Wistar rats (rat, UniProt P18910 29-1057)
T2 sequence (looked up): T1 sequence (P18910 29-1057)


How the values were obtained:
[1] = target: T1, membrane-bound guanylyl cyclase; experiment: cGMP accumulation after activation of membrane-bound guanylyl cyclase in isolated rat lung membranes; format: biochemical
Procedure: The agonist-like activity of the ANP variant peptides was evaluated by in vitro assays designed to measure cGMP accumulation after activation of membrane-bound guanylyl cyclase. Guanylyl cyclases (GC) are a family of enzymes (EC 4.6.1.2) that catalyse the formation of the second messenger cyclic GMP (cGMP) from GTP. Activation of GCs leads to an increase in the concentration of the intracellular messenger molecule cGMP. GCs are subdivided into soluble GCs and GCs that are membrane-bound and linked to a receptor. Activation occurs through binding of nitric oxide (NO) and peptide hormones, respectively. Six different isoforms of membrane-bound GC (GC-A, GC-B, GC-C, GC-D, GC-E and GC-F) are known. The guanylyl cyclase A (GC-A) isoform acts as the receptor for the natriuretic peptides ANP and BNP.
As ANP is known to stimulate GC-A, the effect of known and variant ANP peptides on guanlyl cyclase was examined. The procedure employed was essentially as described in Glover V, et al., 1995 Life Sci. 57(22): 2073-2079; Nashida T, Imai A and Shimomura H (2000), Mol Cell Biochem. 208(1-2): 27-35. Briefly, membrane-bound guanylyl cyclase isolated from the lung of Wistar rats was used. […] The reaction was terminated by addition of 1 N HCl and the supernatant evaluated for cGMP level by EIA. Enzyme activity was determined spectrophotometrically by measuring the formation of cGMP. […]

[2] = system: spontaneously hypertensive rats (SHR); experiment: Renal and cardiovascular effects in anesthetized spontaneously hypertensive rats, 30-min intravenous infusion; format: in vivo, rat; conditions: for heart rate change: i.v. 30-min infusion
Procedure: The assay was performed with anesthetized spontaneously hypertensive rats (SHR) following intravenous administration of the various ANP-proteins by a 30-min infusion.
Male Wistar-Okamoto derived spontaneously hypertensive rats (SHR) provided by National Laboratory Animal Center were used. Space allocation for 6 rats was 45×23×15 cm. All animals were maintained in a controlled temperature (23° C.-24° C.) and humidity (60%-70%) environment with 12 hours light dark cycles for at least one week in MDS Pharma Services—Taiwan Laboratory prior to use. Free access to standard lab chow (Laboratory Rodent Diet MF-18; Oriental Yeast Co., Ltd. Japan) and RO water was granted. All aspects of this work including housing, experimentation and disposal of animals were performed in general accordance with the Guide for the Care and Use of Laboratory Animals (National Academy Press, Washington, D.C., 1996).
Groups of 5 male rats (SHR) weighing 250-300 g were employed. Rats were anaesthetized with Inactin (120 mg/kg i.p.). The left carotid artery, jugular vein, and bladder were cannulated with polyethylene (PE50) catheters. The arterial cannula was connected via a Statham (P 23×L) pressure transducer to a NEC/San-Ei Type 366 polygraph for direct mean arterial blood pressure measurements. Heart rate was derived from pulse pressure signals and monitored on a Data Acquisition and Analytic System (Power Lab 8/SP, AD Instruments, Australia). The body temperature was kept at 37° C. using a thermostat-controlled hot plate. The animals were primed with 1 ml 2.5% dextrose+0.45% NaCl intravenously, followed by continuous infusion of the same solution at a rate of 2.4 ml/hr with an infusion pump throughout the experiments. After an equilibration period of 30 min, a 30-min control urine sample was collected. Test compounds were dissolved in 2.5% dextrose+0.45% NaCl and delivered by infusion for 30 min at 2.4 ml/hr. […] The infusion rate was 2.4 ml/hr. Urine samples were collected through the catheter during infusion of peptides and in the two 30-min post-peptide periods. Urinary Na^+ concentration was measured with an atomic absorption spectrometer. All values represent mean±SEM and Dunnett's test was applied for comparison between corresponding time points for each drug-treated and control groups. Differences were considered significant at P<0.05.

[3] = target: T2, membrane-bound guanylyl cyclase …; experiment: cell-based or functional assay
[4] = i.v. infusion 1 μg/kg/min × 30 min
[5] = i.v. infusion 3 μg/kg/min × 30 min
[6] = i.v. infusion 1 and 3 μg/kg/min × 30 min

Molecule | cGMP accumulation, agonist activity in words [1] | heart rate change [2] | absolute change of mean arterial pressure (MAP-infusion minus MAP-baseline) [2, 4] | absolute change of mean arterial pressure (MAP-infusion minus MAP-baseline) [2, 5] | urine volume (diuresis) [2, 5] | cGMP accumulation after activation of membrane-bound guanylyl cyclase (EIA), EC50 [3] | other results
TAPRSLRRSSCFGGRMDRIGAQSGLGCNSFRELNWLRPLMEQPLLSLME (disulfide 11-27) [ANP-49] | level comparable to the known control molecules | decrease in heart rate | −1 mmHg | −23 mmHg | even higher increase in urine volume relative to Carperitide | – | urine volume (diuresis) [2, 4]: such effect was not observed
CC[C@H](C)[C@@H]1NC(=O)[C@H](CCCNC(=N)N)NC(=O)[C@H](CC(=O)O)NC(=O)[C@H](CCSC)NC(=O)[C@H](CCCNC(=N)N)NC(=O)CNC(=O)CNC(=O)[C@H](Cc2ccccc2)NC(=O)[C@@H](NC(=O)[C@H](CO)NC(=O)[C@H](CO)NC(=O)[C@H](CCCNC(=N)N)NC(=O)[C@H](CCCNC(=N)N)NC(=O)[C@H](CC(C)C)NC(=O)[C@@H](N)CO)CSSC[C@@H](C(=O)N[C@@H](CC(N)=O)C(=O)N[C@@H](CO)C(=O)N[C@@H](Cc2ccccc2)C(=O)N[C@@H](CCCNC(=N)N)C(=O)N[C@@H](Cc2ccc(O)cc2)C(=O)O)NC(=O)CNC(=O)[C@H](CC(C)C)NC(=O)CNC(=O)[C@H](CO)NC(=O)[C@H](CCC(N)=O)NC(=O)[C@H](C)NC(=O)CNC1=O [Carperitide, reference compound] | – | less pronounced | – | – | – | – | –
SLRRSSCFGGRMDRIGAQSGLGCNSFRELNWLRPLMEQPLLSLME (disulfide 7-23) [ANP-45] | level comparable to the known control molecules | decrease in heart rate | −28 mmHg | −37 mmHg | pronounced diuresis, similar in magnitude to that of Carperitide | – | urinary sodium excretion (natriuresis) [2, 6]: dose-dependent increase in urinary sodium excretion; urine volume (diuresis), dose dependence [2, 6]: dose-dependent increase in urine volume
CC[C@H](C)[C@@H]1NC(=O)[C@H](CCCNC(=N)N)NC(=O)[C@H](CC(=O)O)NC(=O)[C@H](CCSC)NC(=O)[C@H](CCCNC(=N)N)NC(=O)CNC(=O)CNC(=O)[C@H](Cc2ccccc2)NC(=O)[C@@H](NC(=O)[C@H](CO)NC(=O)[C@H](CO)NC(=O)[C@H](CCCNC(=N)N)NC(=O)[C@H](CCCNC(=N)N)NC(=O)[C@H](CC(C)C)NC(=O)[C@@H](N)CO)CSSC[C@@H](C(=O)N[C@@H](CC(N)=O)C(=O)N[C@@H](CO)C(=O)N[C@@H](Cc2ccccc2)C(=O)N[C@@H](CCCNC(=N)N)C(=O)N[C@@H](Cc2ccc(O)cc2)C(=O)O)NC(=O)CNC(=O)[C@H](CC(C)C)NC(=O)CNC(=O)[C@H](CO)NC(=O)[C@H](CCC(N)=O)NC(=O)[C@H](C)NC(=O)CNC1=O [ANP-28, reference compound] | – | – | – | – | – | – | heart rate change ([2]; listed as ANP28): decrease in heart rate
SLRRSSCFGGRMDRIGAQSGLGCNSFRELNWLRPLMEQPLLSLME (disulfide 7-23) [ANP-45 (variant)] | – | – | – | – | – | 86.3 nM | –
TAPRSLRRSSCFGGRMDRIGAQSGLGCNSFRELNWLRPLMEQPLLSLME (disulfide 11-27) [ANP-49 (variant)] | – | – | – | – | – | 138 nM | –
